Laboratory results from ChEMBL document CHEMBL5523764, “Discovery of NO Donor-Aurovertin Hybrids as Dual Ferroptosis and Apoptosis Inducers for Treating Triple Negative Breast Cancer” (J Med Chem, 2024).
Active and inactive are the calls of the source. The calls are words filed in the database; no cut-off is given here.

Assays:
MDA-MB-231 [1] = test: Antiproliferative activity against human MDA-MB-231 cells assessed as reduction in cell viability incubated for 72 hrs by MTT assay; assay type: functional, cell-based; details: MDA-MB-231, 72 h
4T1 = test: Antiproliferative activity against mouse 4T1 cells assessed as reduction in cell viability incubated for 72 hrs by MTT assay; assay type: functional, cell-based; details: 4T1, 72 h
[2] = Cytotoxicity against human MCF-10A cells assessed as reduction in cell viability incubated for 72 hrs by MTT assay; assay type: toxicity, cell-based
[3] = Selectivity index, ratio of IC50 for cytotoxicity against human MCF-10A cells to IC50 for antiproliferative activity against human MDA-MB-231 cells; assay type: toxicity, cell-based; details: MCF-10A cells versus MDA-MB-231 cells, read-out: Ratio IC50
MDA-MB-231 [4] = test: Induction of NO release in human MDA-MB-231 cells assessed NO concentration by Griess reagent based assay; assay type: functional
MDA-MB-231 [5] = test: Induction of ferroptosis in human MDA-MB-231 cells xenografted in nude mouse assessed as reduction in GPX4 level at 5 mg/kg, ip administered for 30 days by immunohistochemistry analysis; assay type: functional, organism-based; details: time 30.0 day
MDA-MB-231 [6] = test: Antitumor activity against human MDA-MB-231 cells xenografted in nude mouse assessed as reduction in tumor weight at 5 mg/kg, ip administered for 30 days; assay type: functional, organism-based; details: time 30.0 day
MDA-MB-231 [7] = test: Antitumor activity against human MDA-MB-231 cells xenografted in nude mouse assessed as reduction in tumor size at 5 mg/kg, ip administered for 30 days; assay type: functional, organism-based; details: time 30.0 day

Row | Structure (SMILES) | IC50 (MDA-MB-231 [1]) [µM] | IC50 (4T1) [µM] | IC50 at 72 h [2] [µM] | selectivity ratio [3] | Activity (MDA-MB-231 [4]) [µM] | Activity (MDA-MB-231 [5]) | Activity (MDA-MB-231 [6]) | Activity (MDA-MB-231 [7])
1 | CC[C@H]1O[C@@]2(C)[C@H](OC(C)=O)[C@@]1(C)O[C@@H](/C=C/C=C/C=C/c1oc(=O)cc(OC)c1C)[C@@H]2OC(=O)CCCC(=O)OCc1c(CSCC(=O)O)no[n+]1[O-] | > 10 |  |  |  | 1.76 |  |  | 
2 | CC[C@H]1O[C@]2(C)C(OC(=O)CCCC(=O)OCc3c(CSCCCO)no[n+]3[O-])[C@H](/C=C/C=C/C=C/c3oc(=O)cc(OC)c3C)O[C@]1(C)[C@H]2OC(C)=O (single isomer, unassigned) | > 10 |  |  |  | 2.02 |  |  | 
3 | N=C(N)NCCC[C@H](N)C(=O)O [ARGININE] |  |  |  |  | 1.31 |  |  | 
4 | CC[C@H]1O[C@@]2(C)[C@H](OC(C)=O)[C@@]1(C)O[C@@H](/C=C/C=C/C=C/c1oc(=O)cc(OC)c1C)[C@H]2OC(=O)CCC(=O)OCCc1ccc(Oc2no[n+]([O-])c2S(=O)(=O)c2ccccc2)cc1 | 3.28 | 5.56 | > 50 | > 15 |  |  |  | 
5 | CC[C@H]1O[C@]2(C)C(OC(=O)CCC(=O)OCc3ccc(Oc4no[n+]([O-])c4S(=O)(=O)c4ccccc4)cc3)[C@H](/C=C/C=C/C=C/c3oc(=O)cc(OC)c3C)O[C@]1(C)[C@H]2OC(C)=O (single isomer, unassigned) | 5.88 | > 10 |  |  | 2.44 |  |  | 
6 | CC[C@H]1O[C@@]2(C)[C@H](OC(C)=O)[C@@]1(C)O[C@@H](/C=C/C=C/C=C/c1oc(=O)cc(OC)c1C)[C@@H]2OC(=O)CCCCCCCCCCCCCOc1no[n+]([O-])c1S(=O)(=O)c1ccccc1 | > 10 |  |  |  |  |  |  | 
7 | CC[C@H]1O[C@@]2(C)[C@H](OC(C)=O)[C@@]1(C)O[C@@H](/C=C/C=C/C=C/c1oc(=O)cc(OC)c1C)[C@@H]2OC(=O)CCCC(=O)OCc1c(-c2ccc(OC)cc2)no[n+]1[O-] | 3.87 | 6.72 | > 50 | > 13 |  |  |  | 
8 | CC[C@H]1O[C@@]2(C)[C@H](OC(C)=O)[C@@]1(C)O[C@@H](/C=C/C=C/C=C/c1oc(=O)cc(OC)c1C)[C@@H]2OC(=O)CCCC(=O)OCc1c(-c2ccccc2)no[n+]1[O-] | 9.93 |  |  |  | 1.93 |  |  | 
9 | CC[C@H]1O[C@@]2(C)[C@H](OC(C)=O)[C@@]1(C)O[C@@H](/C=C/C=C/C=C/c1oc(=O)cc(OC)c1C)[C@@H]2OC(=O)CCCC(=O)OCc1c(-c2ccc(Br)cc2)no[n+]1[O-] | 4.75 | 4.56 | > 50 | > 10 | 2.65 |  |  | 
10 | CC(=O)O[C@H]1C(=O)[C@@]2(C)[C@H]([C@H](OC(=O)c3ccccc3)[C@]3(O)C[C@H](OC(=O)[C@H](O)[C@@H](NC(=O)c4ccccc4)c4ccccc4)C(C)=C1C3(C)C)[C@]1(OC(C)=O)CO[C@@H]1C[C@@H]2O [PACLITAXEL] | 4.55 | 3.84 | 7.82 | 1.7 |  |  |  | 
11 | COc1cccc2c1C(=O)c1c(O)c3c(c(O)c1C2=O)C[C@@](O)(C(=O)CO)C[C@@H]3O[C@H]1C[C@H](N)[C@@H](O)[C@H](C)O1 |  |  |  |  |  | inactive | Active | Active
12 | CC[C@H]1O[C@@]2(C)[C@H](OC(C)=O)[C@@]1(C)O[C@@H](/C=C/C=C/C=C/c1oc(=O)cc(OC)c1C)[C@@H]2OC(=O)CCCC(=O)OCc1c(-c2ccc(C)cc2)no[n+]1[O-] | 5.72 | 7.16 | > 50 | > 8 |  |  |  | 
13 | CC[C@H]1O[C@@]2(C)[C@H](OC(C)=O)[C@@]1(C)O[C@@H](/C=C/C=C/C=C/c1oc(=O)cc(OC)c1C)[C@@H]2OC(=O)CCCC(=O)OCc1c(-c2ccc(Cl)cc2)no[n+]1[O-] | 4.59 | 7.86 | > 50 | > 10 | 2.42 |  |  | 
14 | CC[C@H]1O[C@]2(C)C(OC(=O)CCC(=O)OCc3cccc(Oc4no[n+]([O-])c4S(=O)(=O)c4ccccc4)c3)[C@H](/C=C/C=C/C=C/c3oc(=O)cc(OC)c3C)O[C@]1(C)[C@H]2OC(C)=O (single isomer, unassigned) | > 10 |  |  |  | 2.15 |  |  | 
15 | CC[C@H]1O[C@]2(C)C(OC(=O)CCCC(=O)OCc3c(CSCCC(=O)O)no[n+]3[O-])[C@H](/C=C/C=C/C=C/c3oc(=O)cc(OC)c3C)O[C@]1(C)[C@H]2OC(C)=O (single isomer, unassigned) | > 10 |  |  |  | 1.89 |  |  | 
16 | CC[C@H]1O[C@@]2(C)[C@H](OC(C)=O)[C@@]1(C)O[C@@H](/C=C/C=C/C=C/c1oc(=O)cc(OC)c1C)[C@@H]2OC(=O)CCCC(=O)OCc1c(-c2ccc(C(F)(F)F)cc2)no[n+]1[O-] | 4.55 | 8.33 | > 50 | > 10 |  |  |  | 
17 | CC[C@H]1O[C@@]2(C)[C@H](OC(C)=O)[C@@]1(C)O[C@@H](/C=C/C=C/C=C/c1oc(=O)cc(OC)c1C)[C@@H]2OC(=O)CCC(=O)OCCOCCOc1no[n+]([O-])c1S(=O)(=O)c1ccccc1 | 1.75 | 2.7 | > 50 | > 28 |  |  |  | 
18 | CC[C@H]1O[C@@]2(C)[C@H](OC(C)=O)[C@@]1(C)O[C@@H](/C=C/C=C/C=C/c1oc(=O)cc(OC)c1C)[C@@H]2OC(=O)CCCC(=O)OCc1c(CSC[C@@H](NC(C)=O)C(=O)O)no[n+]1[O-] | > 10 |  |  |  | 1.71 |  |  | 
19 | CC[C@H]1O[C@@]2(C)[C@H](OC(C)=O)[C@@]1(C)O[C@@H](/C=C/C=C/C=C/c1oc(=O)cc(OC)c1C)[C@@H]2OC(=O)CCCC(=O)OCc1c(-c2ccc(F)cc2)no[n+]1[O-] | 7.24 | > 10 | > 50 | > 7 | 2.27 |  |  | 

Second part, led by results:

Row | IC50 (MDA-MB-231 [1]) [µM] | IC50 (4T1) [µM] | Structure (SMILES) | IC50 at 72 h [2] [µM] | selectivity ratio [3] | Activity (MDA-MB-231 [4]) [µM] | Activity (MDA-MB-231 [5]) | Activity (MDA-MB-231 [6]) | Activity (MDA-MB-231 [7])
20 | 1.23 | 2.72 | CC[C@H]1O[C@@]2(C)[C@H](OC(C)=O)[C@@]1(C)O[C@@H](/C=C/C=C/C=C/c1oc(=O)cc(OC)c1C)[C@@H]2OC(=O)CCC(=O)ONC(=O)CCCCOc1no[n+]([O-])c1S(=O)(=O)c1ccccc1 | > 50 | > 40 |  |  |  | 
21 | 0.6 | 1.12 | CC[C@H]1O[C@@]2(C)[C@H](OC(C)=O)[C@@]1(C)O[C@@H](/C=C/C=C/C=C/c1oc(=O)cc(OC)c1C)[C@H]2OC(=O)CCC(=O)OCCCCCOc1no[n+]([O-])c1S(=O)(=O)c1ccccc1 | > 50 | > 83 | 4.6 |  |  | 
22 | 0.69 | 1.55 | CC[C@H]1O[C@@]2(C)[C@H](OC(C)=O)[C@@]1(C)O[C@@H](/C=C/C=C/C=C/c1oc(=O)cc(OC)c1C)[C@@H]2OC(=O)CCC(=O)ONC(=O)CCCOc1no[n+]([O-])c1S(=O)(=O)c1ccccc1 | > 50 | > 72 |  |  |  | 
23 | 1.05 | 1.89 | CC[C@H]1O[C@@]2(C)[C@H](OC(C)=O)[C@@]1(C)O[C@@H](/C=C/C=C/C=C/c1oc(=O)cc(OC)c1C)[C@@H]2OC(=O)CCC(=O)ONC(=O)CCCCCOc1no[n+]([O-])c1S(=O)(=O)c1ccccc1 | > 50 | > 48 |  |  |  | 
24 | 0.7 | 1.23 | CC[C@H]1O[C@@]2(C)[C@H](OC(C)=O)[C@@]1(C)O[C@@H](/C=C/C=C/C=C/c1oc(=O)cc(OC)c1C)[C@@H]2OC(=O)CCCCCCCOc1no[n+]([O-])c1S(=O)(=O)c1ccccc1 | > 50 | > 71 |  |  |  | 
25 | 0.5 | 0.77 | CC[C@H]1O[C@@]2(C)[C@H](OC(C)=O)[C@@]1(C)O[C@@H](/C=C/C=C/C=C/c1oc(=O)cc(OC)c1C)[C@@H]2OC(=O)COCCOCCOc1no[n+]([O-])c1S(=O)(=O)c1ccccc1 | > 50 | > 100 |  |  |  | 
26 | 1.5 | 3.42 | CC[C@H]1O[C@@]2(C)[C@H](OC(C)=O)[C@@]1(C)O[C@@H](/C=C/C=C/C=C/c1oc(=O)cc(OC)c1C)[C@@H]2OC(=O)CCC(=O)ONC(=O)COCCOc1no[n+]([O-])c1S(=O)(=O)c1ccccc1 | > 50 | > 33 |  |  |  | 
27 | 0.99 | 2.14 | CC[C@H]1O[C@@]2(C)[C@H](OC(C)=O)[C@@]1(C)O[C@@H](/C=C/C=C/C=C/c1oc(=O)cc(OC)c1C)[C@@H]2OC(=O)CCCCCOc1no[n+]([O-])c1S(=O)(=O)c1ccccc1 | > 50 | > 50 |  |  |  | 
28 | 1.09 | 2.14 | O=S(=O)(c1ccccc1)c1no[n+]([O-])c1S(=O)(=O)c1ccccc1 | 3.8 | 3.1 | 8.06 |  |  | 
29 | 1.23 | 2.08 | CC[C@H]1O[C@@]2(C)[C@H](OC(C)=O)[C@@]1(C)O[C@@H](/C=C/C=C/C=C/c1oc(=O)cc(OC)c1C)[C@@H]2OC(=O)CCC(=O)OCC#CCOc1no[n+]([O-])c1S(=O)(=O)c1ccccc1 | > 50 | > 40 |  |  |  | 
30 | 0.42 | 0.55 | CC[C@H]1O[C@@]2(C)[C@H](OC(C)=O)[C@@]1(C)O[C@@H](/C=C/C=C/C=C/c1oc(=O)cc(OC)c1C)[C@H]2OC(=O)CCC(=O)OCCCCOc1no[n+]([O-])c1S(=O)(=O)c1ccccc1 | > 50 | > 119 | 5.23 |  |  | 
31 | 0.45 | 0.72 | CC[C@H]1O[C@@]2(C)[C@H](OC(C)=O)[C@@]1(C)O[C@@H](/C=C/C=C/C=C/c1oc(=O)cc(OC)c1C)[C@H]2OC(=O)CCC(=O)OCCCCCCOc1no[n+]([O-])c1S(=O)(=O)c1ccccc1 | > 50 | > 111 | 4.92 |  |  | 
